Test results taken from ChEMBL document CHEMBL1909046, “DrugMatrix in vitro pharmacology data”.
Where a SMILES comes first, the peptide text is derived from it. Bridges are numbered along the chain shown (N, C = ends). [ ]: non-standard residue; d: D form. The star is where a group is joined. Ileψ(thiazoline)Cys = CC[C@H](C)[C@H](N)C1=N[C@H](C(=O)*)CS1; dOrn = NCCC[C@@H](N)C(=O)O

Experiments:
[1] = molecular target: T1, Alpha-1A adrenergic receptor (Rattus norvegicus, UniProt P43140); experiment: DRUGMATRIX: Alpha-1A adrenergic receptor radioligand binding (ligand: prazosin); assay type: cell membranes, Wistar, Submaxillary gland, Membrane; conditions: Not Active = under 50% inhibition at 10 µM
T1 sequence (P43140 whole entry): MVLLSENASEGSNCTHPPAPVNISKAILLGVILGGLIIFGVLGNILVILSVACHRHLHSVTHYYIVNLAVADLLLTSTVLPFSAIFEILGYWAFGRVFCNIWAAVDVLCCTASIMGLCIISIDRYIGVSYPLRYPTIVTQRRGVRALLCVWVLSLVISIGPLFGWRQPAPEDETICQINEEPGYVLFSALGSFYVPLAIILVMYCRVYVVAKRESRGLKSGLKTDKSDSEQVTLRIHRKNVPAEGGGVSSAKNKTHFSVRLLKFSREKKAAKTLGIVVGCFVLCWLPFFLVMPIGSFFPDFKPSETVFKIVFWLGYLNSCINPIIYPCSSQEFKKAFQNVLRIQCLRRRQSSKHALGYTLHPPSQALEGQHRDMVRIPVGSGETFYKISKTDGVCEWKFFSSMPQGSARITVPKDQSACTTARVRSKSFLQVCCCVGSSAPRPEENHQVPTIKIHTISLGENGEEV

[2] = molecular target: 5-hydroxytryptamine receptor 2B (Homo sapiens, UniProt P41595); assay type: cell membranes, CHO-K1, Membrane; conditions: cho-k1; further: in other assays of this panel Not Active means under 50% inhibition at 10 µM
[3] = molecular target: Prostaglandin G/H synthase 1 (Homo sapiens, UniProt P23219); experiment: biochemical; assay type: tissue-based, Platelet; conditions: platelet;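 further: inhibition of COX-1 enzyme activity, with arachidonic acid supplied as substrate; in other assays of this panel Not Active means under 50% inhibition at 10 µM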
[4] = molecular target: Glycine receptor (Rattus norvegicus, UniProt P22771+P24524+P07727+P20781); assay type: cell membranes, Wistar, Spinal cord, Membrane; further: in other assays of this panel Not Active means under 50% inhibition at 10 µM
[5] = DRUGMATRIX: Interleukin IL-1 radioligand binding (ligand: [125I] interleukin 1beta); assay type: cell membranes, Membrane; conditions: nih3t3; Not Active = under 50% inhibition at 10 µM
[6] = molecular target: T2, Nitric oxide synthase, inducible (Mus musculus, UniProt P29477); design: species or system Escherichia coli;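 further: inhibition of iNOS enzyme activity measured with L-arginine as substrate; in other assays of this panel Not Active means under 50% inhibition at 10 µM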
T2 sequence (P29477 whole entry): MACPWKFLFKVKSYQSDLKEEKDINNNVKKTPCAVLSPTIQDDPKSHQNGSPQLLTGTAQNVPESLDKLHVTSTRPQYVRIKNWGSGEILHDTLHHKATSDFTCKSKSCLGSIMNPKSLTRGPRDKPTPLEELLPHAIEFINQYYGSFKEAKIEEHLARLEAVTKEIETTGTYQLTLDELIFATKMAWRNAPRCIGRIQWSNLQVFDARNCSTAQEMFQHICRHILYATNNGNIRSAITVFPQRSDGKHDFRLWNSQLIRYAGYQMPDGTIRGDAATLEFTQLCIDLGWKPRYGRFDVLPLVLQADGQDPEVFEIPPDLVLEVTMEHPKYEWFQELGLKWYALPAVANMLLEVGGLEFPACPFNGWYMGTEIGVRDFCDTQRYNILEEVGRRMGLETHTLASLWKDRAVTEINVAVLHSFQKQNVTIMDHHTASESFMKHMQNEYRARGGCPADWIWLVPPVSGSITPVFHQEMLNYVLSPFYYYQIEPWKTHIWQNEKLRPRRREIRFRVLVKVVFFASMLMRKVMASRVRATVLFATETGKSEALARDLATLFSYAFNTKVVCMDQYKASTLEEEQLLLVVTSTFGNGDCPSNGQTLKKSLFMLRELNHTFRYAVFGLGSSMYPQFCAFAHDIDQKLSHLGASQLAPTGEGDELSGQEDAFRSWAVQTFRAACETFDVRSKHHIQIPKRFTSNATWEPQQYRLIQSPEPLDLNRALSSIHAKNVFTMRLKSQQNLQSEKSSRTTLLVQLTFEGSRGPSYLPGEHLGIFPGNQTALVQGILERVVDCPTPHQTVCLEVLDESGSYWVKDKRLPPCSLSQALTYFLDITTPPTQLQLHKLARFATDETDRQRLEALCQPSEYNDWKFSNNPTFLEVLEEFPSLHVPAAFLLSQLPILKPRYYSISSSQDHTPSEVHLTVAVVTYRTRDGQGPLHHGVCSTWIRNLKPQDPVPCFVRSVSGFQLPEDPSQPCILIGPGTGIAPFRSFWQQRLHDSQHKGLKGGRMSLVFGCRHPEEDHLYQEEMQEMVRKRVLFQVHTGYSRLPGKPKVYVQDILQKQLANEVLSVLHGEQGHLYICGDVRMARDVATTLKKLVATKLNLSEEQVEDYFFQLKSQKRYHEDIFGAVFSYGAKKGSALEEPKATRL

[7] = molecular target: Delta-type opioid receptor (Homo sapiens, UniProt P41143); assay type: cell membranes, HEK293, Membrane; conditions: hek293; further: in other assays of this panel Not Active means under 50% inhibition at 10 µM
[8] = molecular target: T3, Interstitial collagenase (Homo sapiens, UniProt P03956); assay type: tissue-based, Rheumatoid synovial fibroblasts
T3 sequence (P03956 whole entry): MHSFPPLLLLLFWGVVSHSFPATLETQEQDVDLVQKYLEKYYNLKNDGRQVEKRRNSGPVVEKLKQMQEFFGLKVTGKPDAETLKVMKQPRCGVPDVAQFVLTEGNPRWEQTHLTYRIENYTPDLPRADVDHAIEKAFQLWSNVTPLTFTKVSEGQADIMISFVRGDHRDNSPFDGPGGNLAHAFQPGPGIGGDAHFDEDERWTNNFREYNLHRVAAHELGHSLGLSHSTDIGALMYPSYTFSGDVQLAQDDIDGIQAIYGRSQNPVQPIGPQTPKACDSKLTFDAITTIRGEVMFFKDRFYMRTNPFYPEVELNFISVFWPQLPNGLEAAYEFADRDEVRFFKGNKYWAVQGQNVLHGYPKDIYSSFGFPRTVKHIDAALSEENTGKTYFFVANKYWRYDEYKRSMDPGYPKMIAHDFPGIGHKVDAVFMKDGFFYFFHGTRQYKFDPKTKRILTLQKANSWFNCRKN

[9] = molecular target: Epidermal growth factor receptor (Homo sapiens, UniProt P00533); experiment: DRUGMATRIX: Protein Tyrosine Kinase, EGF Receptor enzyme inhibition (substrate: Poly(Glu:Tyr)); assay type: cell-based, Insect cells; conditions: insect cells; Not Active = under 50% inhibition at 10 µM
[10] = molecular target: Receptor tyrosine-protein kinase erbB-2 (Homo sapiens, UniProt P04626); experiment: biochemical; assay type: cell-based, Insect cells; conditions: insect cells
[11] = molecular target: Beta-1 adrenergic receptor (Homo sapiens, UniProt P08588); experiment: DRUGMATRIX: Adrenergic beta1 radioligand binding (ligand: [125I] Cyanopindolol); assay type: cell membranes, CHO-K1, Membrane; conditions: cho-k1; Not Active = under 50% inhibition at 10 µM
Sequence of Beta-1 adrenergic receptor (P08588 whole entry): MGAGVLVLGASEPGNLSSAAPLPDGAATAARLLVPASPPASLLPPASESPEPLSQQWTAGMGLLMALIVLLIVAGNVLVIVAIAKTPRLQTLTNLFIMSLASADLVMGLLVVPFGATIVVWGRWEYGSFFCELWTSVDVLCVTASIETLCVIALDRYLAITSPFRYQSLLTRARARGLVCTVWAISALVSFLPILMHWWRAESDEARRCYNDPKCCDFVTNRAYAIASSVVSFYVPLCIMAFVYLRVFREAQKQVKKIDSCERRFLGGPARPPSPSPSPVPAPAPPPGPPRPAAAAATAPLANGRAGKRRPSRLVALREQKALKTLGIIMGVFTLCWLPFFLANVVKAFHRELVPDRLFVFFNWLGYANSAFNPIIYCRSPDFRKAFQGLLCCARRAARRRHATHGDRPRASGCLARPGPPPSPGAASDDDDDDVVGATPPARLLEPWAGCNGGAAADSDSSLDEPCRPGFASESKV

Sequence of Epidermal growth factor receptor (P00533 whole entry): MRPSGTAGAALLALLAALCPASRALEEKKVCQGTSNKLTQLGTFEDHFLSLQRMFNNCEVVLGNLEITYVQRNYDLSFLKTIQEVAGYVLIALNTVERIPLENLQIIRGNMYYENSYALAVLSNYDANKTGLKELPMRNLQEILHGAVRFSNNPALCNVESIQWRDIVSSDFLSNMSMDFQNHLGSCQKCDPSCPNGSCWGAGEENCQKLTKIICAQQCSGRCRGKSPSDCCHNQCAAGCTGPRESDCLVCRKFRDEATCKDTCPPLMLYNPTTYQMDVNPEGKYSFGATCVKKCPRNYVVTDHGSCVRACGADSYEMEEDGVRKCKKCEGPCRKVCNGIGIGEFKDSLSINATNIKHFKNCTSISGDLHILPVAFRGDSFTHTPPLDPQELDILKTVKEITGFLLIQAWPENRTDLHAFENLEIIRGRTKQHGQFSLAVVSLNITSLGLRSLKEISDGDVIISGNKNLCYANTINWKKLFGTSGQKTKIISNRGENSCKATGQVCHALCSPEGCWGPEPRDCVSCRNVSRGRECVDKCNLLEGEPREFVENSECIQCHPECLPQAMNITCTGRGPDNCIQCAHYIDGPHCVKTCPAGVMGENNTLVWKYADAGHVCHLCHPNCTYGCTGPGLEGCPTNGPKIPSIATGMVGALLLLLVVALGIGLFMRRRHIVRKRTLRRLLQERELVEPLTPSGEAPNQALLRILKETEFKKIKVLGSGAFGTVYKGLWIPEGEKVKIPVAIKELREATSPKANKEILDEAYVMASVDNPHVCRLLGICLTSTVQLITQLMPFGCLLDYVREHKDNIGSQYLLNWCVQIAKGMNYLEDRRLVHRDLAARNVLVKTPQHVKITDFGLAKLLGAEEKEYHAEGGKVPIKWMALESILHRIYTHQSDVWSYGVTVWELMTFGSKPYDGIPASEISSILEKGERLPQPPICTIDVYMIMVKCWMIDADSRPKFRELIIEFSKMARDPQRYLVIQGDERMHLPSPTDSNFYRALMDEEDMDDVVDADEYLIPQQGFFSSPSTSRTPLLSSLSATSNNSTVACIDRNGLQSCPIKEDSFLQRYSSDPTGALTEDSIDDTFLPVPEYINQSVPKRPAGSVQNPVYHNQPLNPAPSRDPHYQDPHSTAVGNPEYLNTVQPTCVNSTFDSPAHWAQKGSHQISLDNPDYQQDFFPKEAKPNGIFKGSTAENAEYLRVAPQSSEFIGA
Sequence of Prostaglandin G/H synthase 1 (P23219 whole entry): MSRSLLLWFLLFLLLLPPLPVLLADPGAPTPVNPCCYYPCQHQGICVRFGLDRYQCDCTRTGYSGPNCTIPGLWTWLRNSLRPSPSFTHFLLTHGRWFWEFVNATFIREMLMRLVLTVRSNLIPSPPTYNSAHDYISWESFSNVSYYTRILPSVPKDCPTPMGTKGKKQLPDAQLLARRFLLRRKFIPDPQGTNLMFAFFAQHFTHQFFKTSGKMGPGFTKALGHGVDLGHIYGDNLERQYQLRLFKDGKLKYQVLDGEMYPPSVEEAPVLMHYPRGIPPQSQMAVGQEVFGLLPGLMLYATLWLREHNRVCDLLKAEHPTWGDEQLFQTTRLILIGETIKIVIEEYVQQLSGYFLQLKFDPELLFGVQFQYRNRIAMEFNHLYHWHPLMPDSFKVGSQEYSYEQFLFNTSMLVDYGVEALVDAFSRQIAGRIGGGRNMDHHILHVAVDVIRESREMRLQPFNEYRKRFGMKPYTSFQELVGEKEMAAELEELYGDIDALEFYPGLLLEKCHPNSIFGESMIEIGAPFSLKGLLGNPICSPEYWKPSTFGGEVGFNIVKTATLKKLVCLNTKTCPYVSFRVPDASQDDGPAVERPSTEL
Sequence of 5-hydroxytryptamine receptor 2B (P41595 whole entry): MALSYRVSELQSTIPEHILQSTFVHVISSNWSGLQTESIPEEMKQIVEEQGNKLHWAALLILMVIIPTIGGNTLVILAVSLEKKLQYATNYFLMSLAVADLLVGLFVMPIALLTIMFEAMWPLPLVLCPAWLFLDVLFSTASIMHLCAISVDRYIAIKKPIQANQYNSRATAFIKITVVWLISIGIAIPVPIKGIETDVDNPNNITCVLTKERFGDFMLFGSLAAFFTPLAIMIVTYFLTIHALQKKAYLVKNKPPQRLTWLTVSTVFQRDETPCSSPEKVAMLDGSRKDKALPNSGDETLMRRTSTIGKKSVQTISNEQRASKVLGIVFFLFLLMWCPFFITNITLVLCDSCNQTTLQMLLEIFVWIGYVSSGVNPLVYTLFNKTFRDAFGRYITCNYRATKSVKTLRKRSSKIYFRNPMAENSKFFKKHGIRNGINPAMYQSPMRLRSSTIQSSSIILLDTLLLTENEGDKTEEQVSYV
Sequence of Receptor tyrosine-protein kinase erbB-2 (P04626 whole entry): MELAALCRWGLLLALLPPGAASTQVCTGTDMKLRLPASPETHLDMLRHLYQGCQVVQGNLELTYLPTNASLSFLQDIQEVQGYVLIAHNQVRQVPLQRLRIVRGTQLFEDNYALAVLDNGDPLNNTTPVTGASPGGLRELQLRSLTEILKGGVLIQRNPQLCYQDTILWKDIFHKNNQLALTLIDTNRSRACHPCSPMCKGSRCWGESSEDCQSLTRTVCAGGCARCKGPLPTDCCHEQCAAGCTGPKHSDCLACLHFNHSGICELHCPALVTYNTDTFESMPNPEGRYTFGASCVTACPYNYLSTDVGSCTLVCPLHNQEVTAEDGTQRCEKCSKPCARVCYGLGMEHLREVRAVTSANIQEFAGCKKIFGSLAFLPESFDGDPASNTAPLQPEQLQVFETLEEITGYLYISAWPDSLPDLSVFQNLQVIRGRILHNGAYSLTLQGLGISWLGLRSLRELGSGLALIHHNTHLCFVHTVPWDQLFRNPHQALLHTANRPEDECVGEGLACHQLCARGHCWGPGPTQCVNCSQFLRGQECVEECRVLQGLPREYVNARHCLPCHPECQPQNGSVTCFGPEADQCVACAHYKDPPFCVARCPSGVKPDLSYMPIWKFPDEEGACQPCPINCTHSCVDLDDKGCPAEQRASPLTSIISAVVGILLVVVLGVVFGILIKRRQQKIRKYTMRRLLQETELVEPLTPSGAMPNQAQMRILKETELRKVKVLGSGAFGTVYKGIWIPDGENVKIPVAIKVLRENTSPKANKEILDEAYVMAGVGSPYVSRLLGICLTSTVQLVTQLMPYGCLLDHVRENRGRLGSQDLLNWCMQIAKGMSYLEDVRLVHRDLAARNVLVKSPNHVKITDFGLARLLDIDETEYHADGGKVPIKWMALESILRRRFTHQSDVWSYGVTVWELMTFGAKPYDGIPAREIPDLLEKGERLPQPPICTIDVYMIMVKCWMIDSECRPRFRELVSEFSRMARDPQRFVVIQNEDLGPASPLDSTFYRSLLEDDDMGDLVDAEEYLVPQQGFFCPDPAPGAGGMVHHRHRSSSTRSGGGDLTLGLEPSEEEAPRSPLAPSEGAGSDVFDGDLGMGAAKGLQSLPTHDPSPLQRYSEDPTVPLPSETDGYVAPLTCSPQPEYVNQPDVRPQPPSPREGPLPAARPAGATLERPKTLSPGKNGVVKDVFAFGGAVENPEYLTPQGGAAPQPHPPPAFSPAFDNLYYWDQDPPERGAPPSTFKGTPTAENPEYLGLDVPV
Sequence of Delta-type opioid receptor (P41143 whole entry): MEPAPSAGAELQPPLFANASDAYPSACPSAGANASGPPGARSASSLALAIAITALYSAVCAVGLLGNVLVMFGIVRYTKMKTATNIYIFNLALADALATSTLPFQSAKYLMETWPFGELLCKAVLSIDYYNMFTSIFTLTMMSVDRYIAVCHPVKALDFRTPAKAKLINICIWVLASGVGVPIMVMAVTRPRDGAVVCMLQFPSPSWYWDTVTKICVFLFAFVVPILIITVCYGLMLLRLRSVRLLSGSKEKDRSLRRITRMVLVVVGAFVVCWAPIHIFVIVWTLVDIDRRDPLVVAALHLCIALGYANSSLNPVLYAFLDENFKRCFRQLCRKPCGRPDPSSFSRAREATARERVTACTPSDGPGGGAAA

CC(C)NC[C@H](O)COc1cccc2[nH]ccc12
Not Active: IC50 [1] | IC50 [2] | IC50 [3] | IC50 [4] | IC50 [5] | Ki [5] | IC50 [6] | IC50 [7] | IC50 [8] | IC50 [9] | IC50 [10]

N=C(N)NCCCCNC(=N)N.O=S(=O)(O)O [ARCAINE SULFATE]
Not Active: IC50 [1] | IC50 [2] | IC50 [3] | IC50 [4] | IC50 [5] | Ki [5] | IC50 [6] | IC50 [7] | IC50 [8] | IC50 [9] | IC50 [10]

CC[C@H](C)[C@H](N)C1=N[C@H](C(=O)N[C@@H](CC(C)C)C(=O)N[C@H](CCC(=O)O)C(=O)N[C@H](C(=O)N[C@H]2CCCCNC(=O)[C@H](CC(N)=O)NC(=O)[C@@H](CC(=O)O)NC(=O)[C@H](Cc3cnc[nH]3)NC(=O)[C@@H](Cc3ccccc3)NC(=O)[C@H]([C@@H](C)CC)NC(=O)[C@@H](CCCN)NC2=O)[C@@H](C)CC)CS1 [BACITRACIN] ({Ileψ(thiazoline)Cys}-L[dE]IK[dOrn]I[dF]H[dD]N; lactam 4-C)
Not Active: IC50 [1] | IC50 [11] | IC50 [2] | IC50 [3] | IC50 [4] | IC50 [5] | Ki [5] | IC50 [6] | IC50 [7] | IC50 [8] | IC50 [10]

COC(=O)[C@H](c1ccccc1Cl)N1CCc2sccc2C1 [CLOPIDOGREL]
Not Active: IC50 [1] | IC50 [2] | IC50 [3] | IC50 [4] | IC50 [5] | Ki [5] | IC50 [6] | IC50 [7] | IC50 [8] | IC50 [9] | IC50 [10]

COc1c(N2CCNC(C)C2)c(F)cc2c(=O)c(C(=O)O)cn(C3CC3)c12 (stereo not given) [GATIFLOXACIN]
Not Active: IC50 [1] | IC50 [11] | IC50 [2] | IC50 [3] | IC50 [4] | IC50 [5] | Ki [5] | IC50 [6] | IC50 [7] | IC50 [8] | IC50 [10]
